What all share (type): binding
For assay [1], the target named is T1, GlnH (Mycobacterium tuberculosis, UniProt P96257). Put plainly: crystal structure, thermal melt shift.
In assay [2] the target is T2, C. glutamicum GlnH (GlnHcg) (Corynebacterium glutamicum, UniProt Q8NM30).
T2 construct: gene Cgl2750; soluble domain, N-terminal His6 tag
Put plainly: intrinsic tryptophan fluorescence, thermal melt shift.

In assay [3] the target is T1, GlnH. The assay can be described thus: crystal structure, ITC, thermal melt shift.

Read-outs that look alike come from different tables or passages of the source.

The term Kd denotes the concentration at which binding is half-saturated.

T1 sequence (P96257 27-328 limits assumed): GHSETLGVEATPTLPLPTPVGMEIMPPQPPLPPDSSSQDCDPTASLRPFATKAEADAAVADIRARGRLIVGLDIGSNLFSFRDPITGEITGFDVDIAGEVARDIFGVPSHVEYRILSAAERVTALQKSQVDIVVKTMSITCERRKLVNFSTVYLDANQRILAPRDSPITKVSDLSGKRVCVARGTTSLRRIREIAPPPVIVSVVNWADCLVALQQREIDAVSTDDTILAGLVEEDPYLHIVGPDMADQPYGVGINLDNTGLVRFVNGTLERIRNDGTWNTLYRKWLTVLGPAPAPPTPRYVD
T2 sequence (Q8NM30 entry or part of it): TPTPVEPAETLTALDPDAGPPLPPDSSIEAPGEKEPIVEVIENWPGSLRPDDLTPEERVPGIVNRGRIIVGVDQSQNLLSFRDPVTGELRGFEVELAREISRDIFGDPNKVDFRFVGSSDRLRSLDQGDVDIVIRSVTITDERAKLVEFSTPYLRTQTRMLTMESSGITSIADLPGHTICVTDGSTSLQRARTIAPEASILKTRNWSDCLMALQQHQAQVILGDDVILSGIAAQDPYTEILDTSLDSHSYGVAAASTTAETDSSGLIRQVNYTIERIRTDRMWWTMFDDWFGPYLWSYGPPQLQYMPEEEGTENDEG

Take `NC(=O)C[C@H](N)C(=O)O` [asparagine]: in assay [1], the “crystal structure, thermal melt shift” value was 6H1U (GlnH with Asp), 6H20 (GlnH with Asn), and 6H2T (GlnH with Glu).
As to `N[C@@H](CC(=O)O)C(=O)O` [aspartate], the Kd is 550 ± 90 µM in assay [2] (read-out: Kd (μM)^a) and 4.8 ± 0.6 µM in assay [3] (read-out: Kd (μM)^a).
Turning to `N[C@@H](CCC(=O)O)C(=O)O` [glutamate], the equilibrium dissociation constant (Kd) in assay [2] was 2060 µM; in assay [3] it was 15.2 ± 5.7 µM.

Source of the values: PMC6069109, “An Aspartate-Specific Solute-Binding Protein Regulates Protein Kinase G Activity To Control Glutamate Metabolism in Mycobacteria” (mBio, 2018).
